# Experimental data reported in US5760034A, “Heterocyclic substituted naphthyridinones and methods and compositions employing them” (Schering Corporation, priority 1992, dated 1998).
# Columns and labels:
# [1] = tested on: SRS-A release; assay: inhibition of leukotriene (SRS-A) release in vitro, lung fragments of sensitized guinea pigs challenged with ovalbumin; assay type: cell-based; conditions: 12 min preincubation, 20 μg/ml ovalbumin challenge 15 min; for inhibition at 10 µM: Cavia porcellus, guinea pig lung fragments
# Protocol: In one such test procedure, the anti-allergy method of this invention is identified by tests which measure a compound's inhibition of leukotriene release in sensitized guinea pigs. Male Hartley guinea pigs (250-300 g) are sensitized with 5 mg ovalbumin injected i.p. and 5 mg injected s.c. in 1 ml saline on day 1 and 5 mg ovalbumin injected i.p. on day 4. The sensitized animals are used 3-4 weeks later at which time they weigh 450-500 g. Sensitized guinea pigs are killed by a blow to the head and the lungs removed and cleaned of visible connective tissue, trachea and large blood vessels. The lungs from individual animals are sliced into fragments approximately 1 mm in thickness using a McIlwain tissue chopper and then washed with oxygenated Tyrode's buffer. Weighed aliquots (approximately 400 mg wet weight) of lung are transferred into vials containing 2 ml of fresh Tyrode's solution (containing 10 mM cysteine) and incubated in the presence or absence of test compound for 12 min at 37° C. The tissues are then challenged with 20 μg ovalbumin/ml (final concentration) and incubated for 15 min.
# To measure leukotriene release, an aliquot of supernatant fluid is extracted with 4 volumes of 100% ethanol. After removal of the precipitated protein, the leukotriene content is measured by a radioimmunoassay using [^3 H]LTC4 and antiserum obtained from New England Nuclear. […] Percent inhibition of lekotriene release is calculated by comparing for each lung the release in the presence of the test compound to that in the absence of test compound.
# [2] = tested on: sensitized guinea pigs; assay: suppression of anaphylactic bronchospasm in ovalbumin-sensitized guinea pigs; assay type: in vivo, guinea pig; conditions: 5 mg/kg, orally 2 hours before ovalbumin challenge; peak increase in intratracheal pressure within 15 minutes vs vehicle
# Protocol: Male Hartley guinea pigs (250-300 g) are sensitized with 5 mg ovalbumin injected i.p. and 5 mg injected s.c. in 1 ml saline on day 1 and 5 mg ovalbumin injected i.p. on day 4. The sensitized animals are used 3-4 weeks later at which time they weigh 450-500 g. The sensitized guinea pigs are fasted overnight and the following morning are anesthetized with 0.9 ml/kg i.p. of dialurethane (0.1 g/ml diallylbarbituric acid, 0.4 g/ml ethylurea and 0.4 g/ml urethane). The trachea are cannulated and the animals are ventilated by a Harvard® rodent respirator at 50 strokes/minute with a stroke volume of 5 ml. A side arm to the tracheal cannula is connected to a pressure transducer (Harvard) to obtain a continuous measure of intratracheal pressure which is recorded on a polygraph (Harvard). The jugular vein is cannulated for the i.v. administration of substances. The sensitized guinea pigs are injected i.v. with 1 mg/kg propranolol, 5 mg/kg indomethacin and 2 mg/kg mepyramine given together in a volume of 1 ml/kg. […] Bronchoconstriction is measured as the peak increase in intratracheal pressure occurring within 15 minutes after antigen challenge.
# Test compounds are administered orally 2 hours before challenge with ovalbumin. Suppression of anaphylactic bronchospasm is expressed as a percent inhibition of the peak increase in intratracheal pressure by comparison to a vehicle-treated control group.
Compound,Inhibition of SRS-A release in vitro - Guinea Pig Lung 10 μM [1],inhibition at 10 µM [1],"Inhibition of anaphylactic bronchospasm, % Inhibition [2]"
"3-[1,2-Dihydro-3-(4-morpholinyl)-2-oxo-1,8-naphthyridin-1-yl]benzonitrile",66%,,
"3-[3-(Hexahydro-1H-azepin-1-yl)-1,2-dihydro-2-oxo-1,8-naphthyridin-1-yl]-benzo-nitrile",46%,,
"N#Cc1cccc(-n2c(=O)c(N3CCCC3)cc3cccnc32)c1 [3-(1-Pyrrolidinyl)-1-(3-cyanophenyl)-1,8-naphthyridin-2-(1H )-one]",,43%,
"O=c1c(N2CCCC2)cc2cccnc2n1-c1cccc(C(F)(F)F)c1 [3-(1-pyrrolidinyl)-1-(3-trifluoromethylphenyl)-1,8-naphthyridin-2(1H)-one]",,46%,
"O=c1c(N2CCCC2)cc2cccnc2n1-c1ccccc1 [3-(1-pyrrolidinyl)-1-phenyl-1,8-naphthyridin-2(1H)-one]",,34%,61%
"O=c1c(N2CCOCC2)cc2cccnc2n1-c1ccccc1 [3-(4-Morpholinyl)-1-phenyl-1,8-naphthyridin-2(1H )-one]",,65%,93%
